molecular target: Short transient receptor potential channel 6 (Mus musculus) (UniProt Q61143); experiment: TRPC6 inhibitor potency, dose response, cell-based, mouse TRPC6, HEK293, membrane potential (AID 2696); conditions: TRPC6-expressing HEK293 cells, membrane potential dye fluorescence, acetylcholine-stimulated
Sequence (Q61143 whole entry, looked up): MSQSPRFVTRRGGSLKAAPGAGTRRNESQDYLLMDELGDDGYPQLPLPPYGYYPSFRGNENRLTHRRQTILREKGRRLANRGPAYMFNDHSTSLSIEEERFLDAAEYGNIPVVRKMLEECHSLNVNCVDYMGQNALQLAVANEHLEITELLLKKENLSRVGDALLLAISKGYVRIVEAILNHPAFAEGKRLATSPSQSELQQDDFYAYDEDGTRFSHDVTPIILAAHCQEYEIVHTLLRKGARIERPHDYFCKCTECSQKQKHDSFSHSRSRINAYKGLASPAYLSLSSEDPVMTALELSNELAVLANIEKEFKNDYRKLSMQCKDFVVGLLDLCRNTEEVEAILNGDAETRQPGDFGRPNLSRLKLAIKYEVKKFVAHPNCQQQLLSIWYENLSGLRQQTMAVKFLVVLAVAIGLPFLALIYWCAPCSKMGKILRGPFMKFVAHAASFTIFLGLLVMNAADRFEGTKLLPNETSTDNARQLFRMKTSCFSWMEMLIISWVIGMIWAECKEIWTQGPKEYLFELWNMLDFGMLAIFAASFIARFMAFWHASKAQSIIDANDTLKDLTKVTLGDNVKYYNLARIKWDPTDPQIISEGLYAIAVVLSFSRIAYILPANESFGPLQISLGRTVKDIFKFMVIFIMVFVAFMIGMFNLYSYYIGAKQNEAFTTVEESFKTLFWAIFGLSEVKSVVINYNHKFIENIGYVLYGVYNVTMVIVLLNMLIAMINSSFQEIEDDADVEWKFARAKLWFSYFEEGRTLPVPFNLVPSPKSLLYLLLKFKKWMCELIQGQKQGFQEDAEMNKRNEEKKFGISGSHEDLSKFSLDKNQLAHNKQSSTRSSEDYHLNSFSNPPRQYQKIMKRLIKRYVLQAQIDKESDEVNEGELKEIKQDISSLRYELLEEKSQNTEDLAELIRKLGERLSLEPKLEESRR

| SMILES | IC50 [µM] |
| --- | --- |
| CC(C)[N+](C)(CCOC(=O)C1c2ccccc2Oc2ccccc21)C(C)C | 0.07 |
| CN1CCCN=C1COC(=O)C(O)(c1ccccc1)C1CCCCC1 (stereo not drawn) | 0.05 |
| CN(C)CCOC1c2ccccc2CSc2ccccc21 (stereo not drawn) | 12.6 |
| O=C(c1ccc(C(F)(F)F)cc1)C1CCCN(C2CCSCC2)C1 (stereo not drawn) | 39.8 |
| CCCc1ncc(C(O)(c2ccccc2)c2ccccc2)n1C | 39.8 |
| CCC(C)N(CCNC(=O)CC1Oc2ccccc2NC1=O)C1CCCCC1 (stereo not drawn) | 28.2 |
| Cc1cccc(CCNCc2cc3cccc(C)c3[nH]c2=O)c1 | 50.1 |
| CC[N+](C)(CC)CCC(c1ccccc1)C1CCCCC1 (stereo not drawn) | 4.47 |
| O=C(Nc1ccccc1)Nc1ncc([N+](=O)[O-])s1 | 35.5 |
| CCCCCCCCCCn1ccc(=N)cc1 | 39.8 |
| CCC(C)N(CCNC(=O)CC1Oc2ccc(C)cc2NC1=O)C1CCCCC1 (stereo not drawn) | 15.8 |
| CCN(CC)CCC#CC(O)(c1ccccc1)C1CCCCC1 (stereo not drawn) | 11.2 |
| CCN(CC)CCNc1nc2cc(OC)c(OC)cc2c2nc(-c3ccccc3)nn12 | 79.4 |
| CCSc1ccc2cc(OC)ccc2[n+]1CC | 50.1 |
| OC(C#CCCN1CCCCC1)(c1ccccc1)C1CCCCC1 (stereo not drawn) | 3.55 |
| CC1(C(O)(C#CC[N+]2(C)CCCCC2)c2ccccc2)CCCC1 (stereo not drawn) | 0.14 |
| Cc1cc(C)n(-c2nc(NCCCN(C)C)c3c4c(sc3n2)CCCC4)n1 | 44.7 |
| CN(c1ccccc1)P(=O)(N(C)c1ccccc1)N(C)c1ccccc1 | 44.7 |
| C#CC[N+]1(C)[C@@H]2CC[C@H]1CC(OC(=O)C(CO)c1ccccc1)C2 (stereo partly drawn) | 0.28 |
| N#Cc1c(N2CCNCC2)nc(-c2ccco2)c2c1CCCC2 | 44.7 |
| Cc1cc(C)n(-c2nc(NCCCN(C)C)c3c4c(sc3n2)COC(C)(C)C4)n1 | 14.1 |
| Cc1cc(C)c2sc(N(CCCN(C)C)C(=O)c3ccc(Br)s3)nc2c1 | 63.1 |
| CN(C)CCCN1c2ccccc2Sc2ccc(C(F)(F)F)cc21 | 50.1 |
| C#CC[N+]1(C)[C@@H]2CC(OC(=O)C(CO)c3ccccc3)C[C@H]1C(O)C2 (stereo partly drawn) | 3.55 |

| SMILES | IC50 [µM] |
| --- | --- |
| CCCCCOc1ccc(CSC(=N)N)cc1[N+](=O)[O-] | 79.4 |
| C[N+]1(C)[C@@H]2CC[C@H]1CC(OC(=O)[C@@H](CO)c1ccccc1)C2 (stereo partly drawn) | 0.02 |
| CN(C)CCN(C(=O)c1cccs1)c1nc2cc3c(cc2s1)OCCO3 | 39.8 |
| CCOC(=O)c1cn(C2CC2)c2c(F)c(NCCCN(C)C)c(F)cc2c1=O | 70.8 |
| C[C@H]1OC[C@@H](C[N+](C)(C)C)O1 | 4.47 |
| O=C(NC(Nc1nc2ccc([N+](=O)[O-])cc2s1)(C(F)(F)F)C(F)(F)F)c1ccccc1 | 8.91 |
| CN(C)CCOC(=O)C1(c2ccccc2)CCCC1 | 44.7 |
| S=c1[nH]nc(Cc2ccccc2)n1Cc1ccco1 | 39.8 |
| c1ccc(-c2nc(-c3ccccn3)nc(-c3ccccn3)n2)nc1 | 44.7 |
| CN(C)C(C)(C)/C=C/C(O)(c1ccccc1)c1ccccc1 | 17.8 |
| CCN(CC)CCCOC(=O)C(OC(C)C)(c1ccccc1)c1ccccc1 | 3.98 |
| Cc1cc(C)n(-c2nc(SCCN(C)C)c3c4c(sc3n2)COC(C)(C)C4)n1 | 79.4 |
| C[N+](C)(C)C/C=C1/COCO1 | 11.2 |
| CN1CCC(OC(=O)C2c3ccccc3Oc3ccccc32)CC1 | 0.71 |
| CCOc1cccc(=NC2CCCCC2)c2c(C)n(C)c(C)c12 | 50.1 |
| CCN(CC)CCCNc1nc(-c2ccccc2)nc2ccccc12 | 79.4 |
| CCOC(=O)c1nc2cc3n(c(C)c-2c1C)C(C)C(C)=C3C (stereo not drawn) | 44.7 |
| COc1cc(/C=N/Nc2nncc3ccccc23)cc(OC)c1OC | 44.7 |
| CN(C)CCOC(=O)C(c1ccccc1)C1(O)CCCC1 (stereo not drawn) | 1.78 |
| CCN(CC)CC#CC(O)(c1ccccc1)c1ccccc1 | 8.91 |
| Nc1c2ccccc2nc2ccccc12 | 70.8 |
| O=C(c1ccccc1)N1CCN(C2C3CC4CC(C3)CC2C4)CC1 (stereo not drawn) | 44.7 |
| CCN(CC)CCC/C(=N\O)C(O)(c1ccccc1)c1ccccc1 | 7.94 |
| CN(CC#CC(O)(c1ccccc1)c1ccccc1)C(C)(C)C | 12.6 |

Next, values leading:

| IC50 [µM] | SMILES |
| --- | --- |
| 2.24 | CC1CCN(Cc2ccc(NC(=O)CC3Oc4ccccc4NC3=O)cc2)CC1 (stereo not drawn) |
| 44.7 | CCOC(=O)c1cnc2c(C)cccc2c1NCCCN1CCOCC1 |
| 44.7 | O=C(NC(Nc1ncc(S(=O)(=O)c2ccc([N+](=O)[O-])cc2)s1)(C(F)(F)F)C(F)(F)F)c1ccc(Cl)cc1 |
| 39.8 | CC(C)c1ccc(OCC(O)Cn2cnc3ccccc32)cc1 (stereo not drawn) |
| 4.47 | Cc1cccc[n+]1CC(=O)N1c2ccccc2Sc2ccccc21 |
| 44.7 | CC(O)CNCCNCc1c(OCc2ccccc2)ccc2ccccc12 (stereo not drawn) |
| 63.1 | CN1CCCC1CCNc1ccc2c(=O)c3ccccc3oc2c1 (stereo not drawn) |
| 15.8 | CN1CCN(C2=Nc3cc(Cl)ccc3Nc3ccccc32)CC1 |
| 79.4 | CCOC(=O)c1ccc(NC(=O)CCc2ccc(CC)o2)cc1 |
| 63.1 | CCOC(=O)c1ccc(NC(=O)CC2COc3ccccc3O2)cc1 (stereo not drawn) |
| 79.4 | Cc1c(Cl)cccc1Nc1nc(NCCO)c2ccccc2n1 |
| 1.12 | COc1ccc(N2C(=O)CSC23C(=O)N2CCCc4cccc3c42)cc1 (stereo not drawn) |
| 50.1 | CC(C)(C)c1ccc(OCCCCCCN2CCNCC2)cc1 |
| 50.1 | Cn1c(NCc2c[nH]c3ccccc23)nc2ccccc21 |
| 17.8 | Cc1ccc(C(=O)OCCc2sc[n+](Cc3ccccc3)c2C)cc1 |
| 39.8 | Oc1ccccc1Oc1ncc(Br)c(N2CCOCC2)n1 |
| 70.8 | Cn1c(=O)c2c(nc(SCCN3CCCCC3)n2Cc2ccccc2)n(C)c1=O |
| 79.4 | Cc1nnc(-c2ccccc2)c(=O)n1/N=C/c1c(O)ccc2ccccc12 |
| 44.7 | COC(=O)c1[nH]c2ccc(Br)cc2c1NC(=O)CN1CCN(C2CCCCC2)CC1 |
| 19.9 | Cc1ccc(C)c(Nc2nc(N)c3ccccc3n2)c1 |
| 44.7 | N=c1sccn1CC(=O)Nc1cc(Cl)ccc1Oc1ccccc1 |
| 39.8 | O=C1Nc2ccccc2/C1=N\N=C\C1=C(N2CCOCC2)C(=C\c2ccccc2)/CC1 |
| 44.7 | COc1ccccc1Nc1nc(N)nc(CSC(=S)N2CCCCC2C)n1 (stereo not drawn) |
| 79.4 | O=C1c2ccccc2-c2onc3c(N4CCN(CCO)CC4)cc(N4CCN(C(=O)c5ccco5)CC4)c1c23 |

| IC50 [µM] | SMILES |
| --- | --- |
| 79.4 | COC(=O)c1ccc(NC(=O)N2CCCC(C(=O)c3ccccc3OC)C2)cc1 (stereo not drawn) |
| 50.1 | Oc1ccccc1Nc1nc(NCC2CCCO2)c2ccccc2n1 (stereo not drawn) |
| 15.8 | COc1ccc2ccccc2c1CNC(C)CCc1ccccc1 (stereo not drawn) |
| 79.4 | COc1ccccc1Nc1nc(NCC2CCCO2)c2ccccc2n1 (stereo not drawn) |
| 70.8 | CC(C)N1CCC2(CC1)N=C(c1ccc3c(c1)OCO3)CC(c1cc(Cl)ccc1O)N2 (stereo not drawn) |
| 50.1 | Cc1nnc(SCCn2c(N3CCN(C)CC3)nc3c2c(=O)[nH]c(=O)n3C)s1 |
| 44.7 | C[n+]1ccccc1/C=C/c1ccc(F)c(F)c1 |
| 50.1 | Cc1cccc(NS(=O)(=O)c2cccc(C(=O)N3CCN(c4ccccn4)CC3)c2)c1 |
| 44.7 | CCOCCCNC(=S)N1CCCN(c2nc3cc(C)ccc3cc2C#N)CC1 |
| 3.16 | CC(C)Cn1c(=O)c(C(=O)Nc2ccncc2)c(O)c2ccccc21 |
| 19.9 | O=C(c1ccc2c(=O)n3c(nc2c1)CCCCC3)N1CCN(C(c2ccccc2)c2ccccc2)CC1 |
| 35.5 | Cc1ccc(Sc2c([N+](=O)[O-])c(C)nn2C)cc1 |
| 50.1 | CCCc1cc(-c2[nH]ncc2-c2ccc3c(c2)OCCCO3)c(O)cc1O |
| 44.7 | CC1CCN(CC(C)CNC(=O)c2cc(-c3ccccn3)nc3ccccc23)CC1 (stereo not drawn) |
| 39.8 | COC(=O)c1ccc(NC(=O)c2snnc2-c2ccccc2)cc1 |
| 39.8 | COc1ccccc1N1CCN(Cc2ccc(O)c3ncccc23)CC1 |
| 7.08 | O=S(=O)(Nc1nc2ccccc2[nH]1)c1ccc(Cl)cc1 |
| 63.1 | CCN(c1ccccc1)S(=O)(=O)c1cccc(C(=O)N2CCN(S(=O)(=O)c3ccccc3)CC2)c1 |
| 28.2 | Cc1cc(C)nc(/N=C(\N)N(Cc2ccccc2)Cc2ccccc2)n1 |
| 44.7 | Cc1cc(C)c2nc(C)cc(Nc3ccc(C(=O)NCCO)cc3)c2c1 |
| 79.4 | Cc1ccc(OCCCCCCN2CCNCC2)cc1 |
| 50.1 | O=C1c2cccc3cccc(c23)C(=O)N1CC1CCN(CC(O)COCc2ccc3c(c2)OCO3)CC1 (stereo not drawn) |
| 39.8 | COCCCNC(=S)N1CCCN(c2nc3cc(C)ccc3cc2C#N)CC1 |
| 15.8 | CN1CCCC(C#CC(O)(c2ccccc2)c2ccccc2)C1 (stereo not drawn) |

| IC50 [µM] | SMILES |
| --- | --- |
| 8.91 | CN(C)CCC(=O)N1c2ccccc2Sc2ccc(Cl)cc21 |
| 50.1 | O=[N+]([O-])c1cccc(OCCCN2CCC(Cc3ccccc3)CC2)c1 |
| 44.7 | Cc1ccc(C(OCC(C)(C)C[N+](C)(C)C)c2ccccc2)cc1 (stereo not drawn) |
| 44.7 | CC1=NN(c2ccccc2)C(=O)/C1=C/C=C/c1ccc(N(C)C)cc1 |
| 2.82 | OC(CCN1CCCCC1)(c1ccccc1)c1ccccc1 |
| 50.1 | CCN(CC)c1ccc2cc(C(N)=O)/c(=N\NC(=O)c3ccncc3)oc2c1 |
| 70.8 | CN(C)CCOc1nc(-c2ccccc2)nc2c1oc1ccccc12 |
| 70.8 | Cc1cccc(OCc2nnc(SCc3cc(=O)n4cc(Br)ccc4n3)o2)c1 |
| 44.7 | COCC(C)NC(=O)c1ccc(CN2CCc3ccccc3C2)cc1 (stereo not drawn) |
| 44.7 | CCCCC(O)(CCN1CCOCC1)c1ccc(Cl)cc1 (stereo not drawn) |
| 44.7 | CCCCNC(=O)c1cc2c(=O)n3cccc(C)c3nc2n(Cc2ccncc2)c1=N |
| 79.4 | CCOC(=O)N1CCN(Cc2nc(-c3ccc(Cl)cc3)no2)CC1 |
| 70.8 | CCCCCOC(=O)c1ccc(NC(=O)c2ccco2)cc1 |
| 50.1 | CCOC(=O)C1CCCN(C(=O)c2cc3c(C)nc4ccccc4c3o2)C1 (stereo not drawn) |
| 31.6 | C/C(=N/OC(=O)c1c(-c2c(Cl)cccc2Cl)noc1C)c1cnccn1 |
| 25.1 | Cc1ccc(C)c(NC(=O)C(NCC(C)(C)N2CCOCC2)c2ccccc2)c1 (stereo not drawn) |
| 44.7 | Cc1cc(N2CCN(C)CC2)ccc1NC(=O)c1ccc(-c2ccc(Cl)cc2)o1 |
| 31.6 | COc1ccc(Cl)cc1Nc1nc(N)c2ccccc2n1 |
| 79.4 | O=C1Nc2ccccc2OC1CC(=O)N1CCN(c2cccc(C(F)(F)F)c2)CC1 (stereo not drawn) |
| 44.7 | COc1ccc(-c2cc(=Nc3ccc(C)cc3)c3ccccc3o2)cc1 |
| 39.8 | O=C(CSc1c2c(nc3ccc(Cl)cc13)CCCC2)NCCCN1CCOCC1 |
| 1.41 | O=C(NNS(=O)(=O)c1ccc2ccccc2c1)C1CCN(Cc2ccccc2)CC1 |

— PubChem BioAssay AID2696 (Johns Hopkins Ion Channel Center, 2010)
